Assay results published in PubChem BioAssay (NCI).
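Following 48 hours of exposure in 96-well plates, responses at five concentrations were used to interpolate endpoints linearly. Definition used: TGI = concentration required for complete inhibition of growth.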

Columns and labels:
Experiment in all cases: NCI tumour cell line growth inhibition, 48 h
CCRF-CEM leukemia = tested on: CCRF-CEM leukemia
DU-145 prostate = tested on: DU-145 prostate
HCC-2998 colon = tested on: HCC-2998 colon
HCT-15 colon = tested on: HCT-15 colon
HOP-62 NSCLC = tested on: HOP-62 NSCLC
HS 578T breast = tested on: HS 578T breast
HT29 colon = tested on: HT29 colon
K-562 leukemia = tested on: K-562 leukemia
KM12 colon = tested on: KM12 colon
LOX IMVI melanoma = tested on: LOX IMVI melanoma
NCI-H226 lung = tested on: NCI-H226 lung
OVCAR-8 ovarian = tested on: OVCAR-8 ovarian
PC-3 prostate = tested on: PC-3 prostate
SN12C renal = tested on: SN12C renal
SW-620 colon = tested on: SW-620 colon
T-47D breast = tested on: T-47D breast
U251 CNS = tested on: U251 CNS
UACC-257 melanoma = tested on: UACC-257 melanoma
MALME-3M melanoma = tested on: MALME-3M melanoma

| Structure (SMILES) | TGI (CCRF-CEM leukemia) [µM] | TGI (DU-145 prostate) [µM] | TGI (HCC-2998 colon) [µM] | TGI (HCT-15 colon) [µM] | TGI (HOP-62 NSCLC) [µM] | TGI (HS 578T breast) [µM] | TGI (HT29 colon) [µM] | TGI (K-562 leukemia) [µM] | TGI (KM12 colon) [µM] | TGI (LOX IMVI melanoma) [µM] | TGI (NCI-H226 lung) [µM] | TGI (OVCAR-8 ovarian) [µM] | TGI (PC-3 prostate) [µM] | TGI (SN12C renal) [µM] | TGI (SW-620 colon) [µM] | TGI (T-47D breast) [µM] | TGI (U251 CNS) [µM] | TGI (UACC-257 melanoma) [µM] | TGI (MALME-3M melanoma) [µM] |
| --- | --- | --- | --- | --- | --- | --- | --- | --- | --- | --- | --- | --- | --- | --- | --- | --- | --- | --- | --- |
| O=P1(N(CCCl)CCCl)Oc2c(Cl)cc(Cl)c(Cl)c2Cc2c(Cl)c(Cl)cc(Cl)c2O1 | > 100 | > 100 | > 100 | > 100 | > 100 | > 100 | > 100 | > 100 | > 100 | > 100 | > 100 | > 100 | > 100 | > 100 | > 100 | > 100 | > 100 | > 100 |  |
| CCOC(=O)CCC(NC(=O)C(CCC(=O)OCC)NC(=O)C(Cc1ccc([N+](=O)[O-])cc1)NC(C)=O)C(=O)NNC(=O)OC(C)(C)C (configuration not stated) |  |  | > 100 | > 100 | > 100 | > 100 | > 100 | > 100 | > 100 |  | > 100 | > 100 | > 100 | > 100 | > 100 | > 100 | > 100 | > 100 | > 100 |
| COC1CC(=O)C2C(=O)N(c3ccccc3)C(=O)C23C(C(=O)c2ccccc2)=C(C)NC13O (configuration not stated) | 28.9 | 27.8 |  | 23.4 | 41.9 | 57.7 | 34.2 | 0.21 | 35.6 | 28.9 |  | > 100 | 34.5 | 37.1 | 23 | 14.1 | 35.5 | 56.2 | 9.96 |
| C=C1CC(COc2ccc3c(C)c(Cl)c(=O)oc3c2)(c2ccccc2)OC1=O (configuration not stated) |  | 9.66 | 3.59 | 5.13 | 20.3 | 17.5 | 2.67 |  | 6.69 | 2.82 | 8.01 | 5.61 | 5.49 | 20.1 | 2.62 | 4.15 | 20.4 | 4.01 | 3.75 |
| Cc1ccc(N/C(=C(/C(Cl)=C(Cl)Cl)[N+](=O)[O-])n2nnc3ccccc32)cc1 | 64.5 |  | 35.1 | 52.3 | 39.7 | 47.1 | 42 | > 100 | 47.7 |  | 35.3 | 38 | 33.8 | 43.7 | 43.5 | 52.5 |  | 62.7 | 29.9 |
| CCCCCCCCCCCCCCC(C(=O)[O-])[n+]1ccccc1 (configuration not stated) | > 100 | > 100 | > 100 | > 100 | > 100 | > 100 | > 100 | > 100 | > 100 | > 100 | > 100 | > 100 | 77.6 | > 100 | > 100 | > 100 | > 100 | > 100 |  |
| CCC(C#N)NCc1ccc(CNC(C#N)CC)cc1 (configuration not stated) | > 100 | > 100 | > 100 | > 100 |  | > 100 | > 100 | > 100 | > 100 | > 100 | > 100 | > 100 | > 100 | > 100 | > 100 | > 100 | > 100 | > 100 | > 100 |
| Cn1cc(S(=O)(=O)NC(=O)Nc2ccc(Cl)cc2)c(=O)c2ccc(Cl)cc21 | > 100 |  | > 100 | > 100 | > 100 | > 100 | > 100 | > 100 | > 100 | > 100 | > 100 | > 100 | > 100 | > 100 | > 100 | > 100 | > 100 | > 100 | > 100 |
| Cc1cccc(-c2cccc(COCc3cccc(-c4cccc(CO)n4)n3)n2)n1 |  | > 50 | > 50 | > 50 | > 50 | > 50 | > 50 | > 50 | > 50 | > 50 | > 50 | > 50 | > 50 | > 50 | > 50 | > 50 | > 50 | > 50 |  |
| Cc1cccc(C)c1NC(=O)C(=O)C(c1ccccc1Cl)S(=O)(=O)Cc1ccccc1Cl (configuration not stated) | > 100 | > 100 | > 100 | > 100 | 45.4 | > 100 | > 100 | > 100 | > 100 | > 100 | > 100 | > 69.6 | > 100 | > 100 | > 100 | > 100 | > 100 | > 100 |  |
| SCc1ccc(-c2ccc(CS)cc2)cc1 | 10.7 |  | 30.6 | 33.3 | 14 | 22.3 | 69.8 | 26.9 | 10.1 | 15 | 36.9 | 53.7 | 34 | > 81.2 | 60 | 41.6 | 31.1 | 45.2 | 36.1 |
| CC1(C)[C@H]2CC[C@](C)(C2)[C@]1(S)Cc1ccccn1 | 24.8 | > 100 | 41.5 | > 100 | > 100 | > 100 | > 100 | > 100 | > 100 | 36.8 |  | 42.6 | 67.6 | > 100 | > 100 | 73.1 | 36.6 | 72.7 | > 100 |
| CCCCCCCCCCCCCCCCC(=O)NCC(=O)NCC(=O)NC(Cc1ccccc1)C(=O)Oc1ccc([N+](=O)[O-])cc1 (configuration not stated) | 44.9 | > 100 | 37.3 | 34.5 | > 100 | > 100 | 88 | 56.6 | 48.8 | 38.7 | 70 | 38.7 | 86.6 | 34.6 | 37.2 | > 100 | 43.3 | 57.4 |  |
